Patent US20080247991A1, “Solution Additives For the Attenuation of Protein Aggregation” (priority 2004, published 2008)
Marks after values point to notes of the source that are not given here.

Columns and labels:
[1] = target: T1, insulin binding to immobilized monoclonal anti-insulin (Homo sapiens, UniProt P01308); assay: Surface plasmon resonance (Biacore 3000): globular protein association/dissociation kinetics in buffer with additive; conditions: for effect on association rate of insulin and anti-insulin / effect on dissociation rate of insulin and anti-insulin: 0.5M, relative to 0.5M NaCl control
T1 construct: purchased Sigma-Aldrich (insulin); Fitzgerald Industries (antibody) I8530; 10-130 clone M322214
T1 sequence (P01308 25-54 limits assumed): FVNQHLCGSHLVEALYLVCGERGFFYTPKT
T1 sequence (P01308 90-110 limits assumed): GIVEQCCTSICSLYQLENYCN
Protocol: Surface plasmon resonance experiments were conducted to measure the effect of added ArgHCl and GuHCl on the kinetics of globular protein association and dissociation versus an equimolar salt control (NaCl). The data set shown in the figure is a composition of 8 different concentration runs plus replicates, for a total of 16 runs. At t=140 sec, the flow cell with immobilized anti-insulin was exposed to a constant concentration of insulin in the range of 2 to 188 nM for 3 minutes. During this 3 minutes, the antibody and antigen were free to associate and dissociate. The net reaction is the binding of free antigen in solution, resulting in an increase in detector response proportional to the mass of antigen bound. At t=320 sec, the insulin concentration in the flow cell inlet is returned to zero, and the bound antigen then dissociates from the surface. All 16 runs were simultaneously fit to a binding model by minimizing the squared residuals to yield the association and dissociation rate constants, ka and kd. This process was repeated to yield association, dissociation, and equilibrium constant data for the model systems in various buffers as shown in Table 4.
Globular Protein Association Kinetics—Protein association and dissociation rate constants, ka and kd, were measured for globular proteins via surface plasmon resonance on a Biacore 3000 instrument. Monoclonal anti-insulin was immobilized on a Biacore CM5 sensor chip via amine coupling. The amount of immobilized antibody was selected to give a detector response in the range of 50-100 RU when antigen was present. A reference surface was created by activating and deactivating the surface without coupling an antibody to it.
Different concentrations of insulin in the nanomolar range ([…]) were prepared by dilution and injected serially into the antibody-containing and reference flow cells. […] Pocker, Y. & Biswas, Subhasis, B. (1981) Biochemistry 20, 4354-4361. The dissociation rate was sufficiently fast in buffer that a regeneration buffer was not required. Kinetic constants were extracted by simultaneous fitting of ka and kd to each set of sensorgrams using a 1:1 kinetic model in the BIAevaluation 3.0 software package.

carbonic anhydrase II [2] = target: T2, carbonic anhydrase II (Bos taurus, UniProt P00921); assay: Carbonic anhydrase refolding yield by esterase activity (pNPA)
T2 sequence (P00921 whole entry): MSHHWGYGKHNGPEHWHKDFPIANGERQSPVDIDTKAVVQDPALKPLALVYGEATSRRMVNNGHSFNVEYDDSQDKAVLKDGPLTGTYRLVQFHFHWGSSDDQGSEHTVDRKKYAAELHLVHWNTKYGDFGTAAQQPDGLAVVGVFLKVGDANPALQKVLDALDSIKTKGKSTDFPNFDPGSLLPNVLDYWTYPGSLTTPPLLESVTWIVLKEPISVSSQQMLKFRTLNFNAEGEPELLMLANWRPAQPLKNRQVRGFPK
Protocol: Esterase activity assays were performed as a function of initial unfolded protein concentration and buffer composition to determine how equimolar concentrations of NaCl, ArgHCl, and GuHCl each affected refolding yield (FIG. 16).
High concentrations of carbonic anhydrase (>300 μM) were denatured in 6M GuHCl and equilibrated overnight. Refolding was initiated by dilution to 0.5M GuHCl with 50 mM Tris-HCl buffer, pH 7.5. This final GuHCl concentration was selected because it yields a mixture of active, refolded protein and aggregates. The distribution of this mixture was analyzed via esterase activity, size exclusion HPLC, and dynamic light scattering as described above.
Carbonic Anhydrase Esterase Activity—Esterase activity of carbonic anhydrase was assessed using para-nitrophenylacetate (pNPA) as the substrate as described previously. […] Briefly, 10 μl samples of carbonic anhydrase solution were added to 500 μl of Tris-HCl, pH 7.5 and 50 μl of 50 mM pNPA in acetonitrile. Kinetics of hydrolysis of pNPA was observed by the increase in absorbance at 400 nm due to the appearance of the paranitrophenolate ion (pNP^−). In all cases, the observed hydrolysis rate in absorbance units per second (AU/s) under these conditions was constant (pseudo-zero order). Hydrolysis rates were corrected for the hydrolysis of pNPA by the buffer for each type of buffer used. […] The active protein concentration data was reproducible to within 5-8% in replicated experiments.

carbonic anhydrase II [3] = target: T2, carbonic anhydrase II; assay: Size exclusion HPLC of multimers formed during refolding of carbonic anhydrase; design: purchased Sigma-Aldrich C2522; species or system bovine; conditions: for A2, percentage of total carbonic anhydrase / A3-5, percentage of total carbonic anhydrase / A6-15, percentage of total carbonic anhydrase / M (monomer), percentage of total carbonic anhydrase / Large multimers, percentage of total carbonic anhydrase: [U]0 = 20 μM, 0.5 M additive; for Large multimers, percentage of total carbonic anhydrase: inferred by difference
Protocol: Size exclusion HPLC experiments were performed to analyze the distribution of multimers formed during refolding. CA was refolded with three different additives, 0.5M NaCl, 0.5M GuHCl, and 0.5M ArgHCl, relative to a base refolding buffers of 0.5M GuHCl, as done in the esterase activity assays above. […] Other than this protein concentration difference, these experiments allow direct comparison of how an additional 0.5M of the three different cations affect refolding.
The samples were not filtered prior to introduction into the HPLC column.
Size Exclusion HPLC—Size exclusion HPLC (SE-HPLC) experiments were performed on a Beckman System Gold HPLC instrument equipped with a Tosohaas G3000SWXL size exclusion column and a UV detector. 30 μl samples were introduced to the column by a constant flow of 1 ml/min mobile phase. Each sample ran for 15 minutes, with carbonic anhydrase eluting between 6 and 10 minutes, depending on its molecular weight and buffer. […] A mixture of lysozyme, carbonic anhydrase, and bovine serum albumin (monomer and dimer) was used as a standard to calibrate molecular weight to retention time. Using this calibration curve and the breakthrough time of the column, the largest multimer that could pass through the column was a 15-mer. When significant mass was missing from a chromatogram, large multimers were quantitated by difference. The presence of large multimers was confirmed via turbidity or dynamic light scattering for each buffer. The instrument was cleaned with 30 μl injections of 4M GuHCl, a denaturing concentration found to dissociate and elute precipitates and large soluble carbonic anhydrase multimers.

carbonic anhydrase II [4] = target: T2, carbonic anhydrase II; design: purchased Sigma-Aldrich C2522; conditions: 1.0M GuHCl, carbonic anhydrase less than 30 μM; previous studies; cited from earlier work
RNase T1 = target: T3, RNase T1 (Aspergillus oryzae, UniProt P00651); conditions: interpolated to mbulk 1.10 m; cited from earlier work
T3 sequence (P00651 27-130): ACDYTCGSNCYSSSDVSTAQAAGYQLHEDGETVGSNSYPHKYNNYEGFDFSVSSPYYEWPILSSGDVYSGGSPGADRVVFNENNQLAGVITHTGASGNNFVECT

[5] = target: Human insulin (I8530), Sigma-Aldrich (human) (UniProt P01308); assay: SPR, Biacore 3000, antibody immobilised on CM5, insulin as analyte, KD = kd/ka; HBS-EP + 0.5 M NaCl
Chain of Human insulin (I8530), Sigma-Aldrich (human) (P01308 25-54 limits assumed, chain 1 of 2): as the sequence (P01308 25-54 limits assumed) above

[6] = target: Human insulin (I8530), Sigma-Aldrich (human) (UniProt P01308); assay: SPR; association rate constant in HBS-EP + 0.5 M ArgHCl relative to HBS-EP + 0.5 M NaCl
[7] = target: Human insulin (I8530), Sigma-Aldrich (human) (UniProt P01308); assay: SPR; dissociation rate constant in HBS-EP + 0.5 M ArgHCl relative to HBS-EP + 0.5 M NaCl
[8] = target: Human insulin (I8530), Sigma-Aldrich (human) (UniProt P01308); assay: SPR; association rate constant in HBS-EP + 0.5 M GuHCl relative to HBS-EP + 0.5 M NaCl
[9] = target: Human insulin (I8530), Sigma-Aldrich (human) (UniProt P01308); assay: SPR, Biacore 3000, antibody immobilised on CM5, insulin as analyte, KD = kd/ka; HBS-EP + 0.5 M GuHCl
[10] = target: Human insulin (I8530), Sigma-Aldrich (human) (UniProt P01308); assay: SPR, Biacore 3000, antibody immobilised on CM5, insulin as analyte, KD = kd/ka; HBS-EP + 0.5 M ArgHCl
[11] = target: Human insulin (I8530), Sigma-Aldrich (human) (UniProt P01308); assay: SPR, Biacore 3000, antibody immobilised on CM5, insulin as analyte, 1:1 model; HBS-EP + 0.5 M ArgHCl
[12] = target: Human insulin (I8530), Sigma-Aldrich (human) (UniProt P01308); assay: SPR; dissociation rate constant in HBS-EP + 0.5 M GuHCl relative to HBS-EP + 0.5 M NaCl
[13] = target: Human insulin (I8530), Sigma-Aldrich (human) (UniProt P01308); assay: SPR, Biacore 3000, antibody immobilised on CM5, insulin as analyte, 1:1 model; HBS-EP + 0.5 M NaCl
[14] = target: Human insulin (I8530), Sigma-Aldrich (human) (UniProt P01308); assay: SPR, Biacore 3000, antibody immobilised on CM5, insulin as analyte, 1:1 model; HBS-EP + 0.5 M GuHCl
RNase A = target: T4, RNase A (Bos taurus, UniProt P61823); conditions: interpolated to mbulk 0.91 m; cited from earlier work
T4 sequence (P61823 27-150): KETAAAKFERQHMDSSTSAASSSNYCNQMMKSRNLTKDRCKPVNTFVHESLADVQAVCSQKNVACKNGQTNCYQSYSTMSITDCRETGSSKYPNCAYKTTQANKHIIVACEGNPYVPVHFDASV

[15] = 0.5 M additive in HBS-EP, pH 7.4, estimated error 15%
[16] = 0.5 M additive, relative to HBS-EP + 0.5 M NaCl

Work on Cl.N=C(N)N [GuHCl, Guanidinium chloride] yielded a ka [1, 15] of 40000 M⁻¹ s⁻¹, a kd [1, 15] of 0.094 s⁻¹ and a ka/ka0 [1, 16] of 0.91. For the same compound, the kd/kd0 [1, 16] was 6.7, the “effect on association rate of insulin and anti-insulin” value [1] was “insignificant effect” and the “effect on dissociation rate of insulin and anti-insulin” value [1] was “significantly increases”. For the same compound, the “effect on association rate of insulin and anti-insulin” value ([1]; listed as guanidinium) was “little effect”, the “effect on dissociation rate of insulin and anti-insulin” value ([1]; listed as guanidinium) was “accelerated” and the α/α0 (carbonic anhydrase II [2]; 0.5 M additive, relative to 0.5M NaCl, base buffer 0.5 M GuHCl) was 8.2. For the same compound, the “α (refolding selectivity parameter, kr/kagg)” value (carbonic anhydrase II [2]; 0.5 M additive, base buffer 0.5 M GuHCl, fit to second-order aggregation model) was 77 µM, the “order of yield of active protein as a function of buffer additive” value (carbonic anhydrase II [2]; equimolar (0.5M) additives) was “NaCl<<ArgHCl<GuHCl” and the “yield of monomeric protein” value (carbonic anhydrase II [3]; 0.5M added, versus 0.5M NaCl) was “significantly increased”. For the same compound, the “A2, percentage of total carbonic anhydrase” value (shortened to “A2, percentage”) (carbonic anhydrase II [3]; time 2 min) was 39%, the “A3-5, percentage of total carbonic anhydrase” value (shortened to “A3-5, percentage”) (carbonic anhydrase II [3]; time 2 min) was 8% and the “A6-15, percentage of total carbonic anhydrase” value (“A6-15, percentage” for short) (carbonic anhydrase II [3]; time 2 min) was 0%. For the same compound, the “M (monomer), percentage of total carbonic anhydrase” value (“M (monomer), percentage” for short) (carbonic anhydrase II [3]; time 2 min) was 42%, the “Large multimers, percentage of total carbonic anhydrase” value (shortened to “Large multimers, percentage”) (carbonic anhydrase II [3]; time 2 min) was 11% and the “A2, percentage” value (carbonic anhydrase II [3]; time 20 min) was 3%. For the same compound, the “A3-5, percentage” value (carbonic anhydrase II [3]; time 20 min) was 6%, the “A6-15, percentage” value (carbonic anhydrase II [3]; time 20 min) was 0% and the “M (monomer), percentage” value (carbonic anhydrase II [3]; time 20 min) was 82%. The “Large multimers, percentage” value (carbonic anhydrase II [3]; time 20 min) was 9%, the “A2, percentage” value (carbonic anhydrase II [3]; time 38 min) was 1% and the “A3-5, percentage” value (carbonic anhydrase II [3]; time 38 min) was 5%. For the same compound, the “A6-15, percentage” value (carbonic anhydrase II [3]; time 38 min) was 0%, the “M (monomer), percentage” value (carbonic anhydrase II [3]; time 38 min) was 85% and the “Large multimers, percentage” value (carbonic anhydrase II [3]; time 38 min) was 9%. The “A2, percentage” value (carbonic anhydrase II [3]; time 1500 min) was 0%, the “A3-5, percentage” value (carbonic anhydrase II [3]; time 1500 min) was 2% and the “A6-15, percentage” value (carbonic anhydrase II [3]; time 1500 min) was 0%. The “M (monomer), percentage” value (carbonic anhydrase II [3]; time 1500 min) was 89%, the “Large multimers, percentage” value (carbonic anhydrase II [3]; time 1500 min) was 9% and the “yield of native protein” value (carbonic anhydrase II [4]) was roughly 100%.
For NC(N)=O [Urea], the “Experimental ΓXP” value (RNase T1) is given as 6.4^a.
Compound “Monoclonal anti-insulin (10-130 clone M322214), Fitzgerald Industries (antibody)” has a Kd [5] of 320 nM, a ka/ka0 [6] of 0.27 and a kd/kd0 [7] of 1.6. It also gave a ka/ka0 [8] of 0.91, a Kd [9] of 2400 nM and a Kd [10] of 1800 nM. For the same compound, the koff [11] was 0.022 s⁻¹, the kon [11] was 12000 M⁻¹ s⁻¹ and the kd/kd0 [12] was 6.7. The koff [13] was 0.014 s⁻¹, the kon [13] was 44000 M⁻¹ s⁻¹ and the koff [14] was 0.094 s⁻¹. It also gave a kon [14] of 40000 M⁻¹ s⁻¹.
For OCC(O)CO [Glycerol], the “Experimental ΓXP” value (RNase A) is listed as −1.7 ± 0.8^b.
